Measured values taken from ChEMBL document CHEMBL2074102, “Expression and functional characterization of rat organic anion transporter 3 (rOat3) in the choroid plexus” (Mol Pharmacol, 2002).

T1: Organic anion transporter 3 (Rattus norvegicus, UniProt Q9R1U7)
T1 sequence (Q9R1U7 whole entry): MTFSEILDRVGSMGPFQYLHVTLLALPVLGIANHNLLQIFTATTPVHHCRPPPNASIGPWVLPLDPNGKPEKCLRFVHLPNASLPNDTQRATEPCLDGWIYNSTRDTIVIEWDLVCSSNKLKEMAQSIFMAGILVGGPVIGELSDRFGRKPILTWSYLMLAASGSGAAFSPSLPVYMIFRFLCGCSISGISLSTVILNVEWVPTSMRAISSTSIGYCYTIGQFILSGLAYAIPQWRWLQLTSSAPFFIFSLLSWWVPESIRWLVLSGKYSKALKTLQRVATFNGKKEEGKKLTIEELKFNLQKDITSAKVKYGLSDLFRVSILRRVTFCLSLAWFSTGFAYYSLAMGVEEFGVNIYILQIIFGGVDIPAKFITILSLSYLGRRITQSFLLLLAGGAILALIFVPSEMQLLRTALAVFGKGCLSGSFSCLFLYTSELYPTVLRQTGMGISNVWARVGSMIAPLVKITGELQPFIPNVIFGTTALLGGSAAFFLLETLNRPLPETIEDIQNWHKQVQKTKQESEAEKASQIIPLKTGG

T2: Solute carrier family 22 member 6 (Rattus norvegicus, UniProt O35956)
T2 sequence (O35956 whole entry): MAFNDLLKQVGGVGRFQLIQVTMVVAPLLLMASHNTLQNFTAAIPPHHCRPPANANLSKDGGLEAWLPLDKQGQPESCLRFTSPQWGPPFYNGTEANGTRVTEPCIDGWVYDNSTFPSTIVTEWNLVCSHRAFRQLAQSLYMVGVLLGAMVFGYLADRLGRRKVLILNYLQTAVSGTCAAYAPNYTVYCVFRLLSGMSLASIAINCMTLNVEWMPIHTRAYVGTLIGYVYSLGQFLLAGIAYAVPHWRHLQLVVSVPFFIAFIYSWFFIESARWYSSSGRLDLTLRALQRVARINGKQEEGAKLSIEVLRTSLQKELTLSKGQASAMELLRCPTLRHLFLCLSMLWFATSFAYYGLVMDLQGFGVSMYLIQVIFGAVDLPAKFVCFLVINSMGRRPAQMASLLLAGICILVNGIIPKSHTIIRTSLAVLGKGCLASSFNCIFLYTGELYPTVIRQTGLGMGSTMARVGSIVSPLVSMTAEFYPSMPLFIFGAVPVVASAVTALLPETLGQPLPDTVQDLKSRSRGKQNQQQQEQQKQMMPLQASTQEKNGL


Experiments:
Format in all cases: functional, cell-based
[1] = biological target: T1, Organic anion transporter 3; test: TP_TRANSPORTER: inhibition of PCG uptake in Oat3-expressing LLC-PK1 cells
[2] = biological target: T2, Solute carrier family 22 member 6; test: TP_TRANSPORTER: inhibition of PAH uptake in Oat1-expressing LLC-PK1 cells
[3] = biological target: T1, Organic anion transporter 3; test: TP_TRANSPORTER: inhibition of PCG uptake in OAT3-expressing LLC-PK1 cells
[4] = substrate: CC1(C)S[C@@H]2[C@H](NC(=O)Cc3ccccc3)C(=O)N2[C@H]1C(=O)O; test: TP_TRANSPORTER: uptake in Oat3-expressing LLC-PK1 cells

| Molecule | Ki [1] | Ki [2] | Ki [3] | also measured |
| --- | --- | --- | --- | --- |
| Nc1ccc(C(=O)NCC(=O)O)cc1 [AMINOHIPPURIC ACID] | 398 µM |  |  |  |
| CN/C(=N/CCSCc1nc[nH]c1C)NC#N [CIMETIDINE] |  | > 1000 µM | 46.8 µM |  |
| C[C@]12CC[C@@H]3c4ccc(O)cc4CC[C@H]3[C@@H]1CC[C@@H]2O[C@@H]1O[C@H](C(=O)O)[C@@H](O)[C@H](O)[C@H]1O [ESTRADIOL 17B GLUCURONIDE] | 35.6 µM | > 300 µM |  |  |
| C[C@]12CC[C@@H]3c4ccc(OS(=O)(=O)O)cc4CC[C@H]3[C@@H]1CCC2=O [ESTRONE SULFURIC ACID] |  |  | 9.1 µM |  |
| CCCN(CCC)S(=O)(=O)c1ccc(C(=O)O)cc1 [PROBENECID] | 4.43 µM |  |  |  |
| Organic anion transporter 3 (Rattus norvegicus) (protein) MTFSEILDRVGSMGPFQYLHVTLLALPVLGIANHNLLQIFTATTPVHHCRPPPNASIGPWVLPLDPNGKPEKCLRFVHLPNASLPNDTQRATEPCLDGWIYNSTRDTIVIEWDLVCSSNKLKEMAQSIFMAGILVGGPVIGELSDRFGRKPILTWSYLMLAASGSGAAFSPSLPVYMIFRFLCGCSISGISLSTVILNVEWVPTSMRAISSTSIGYCYTIGQFILSGLAYAIPQWRWLQLTSSAPFFIFSLLSWWVPESIRWLVLSGKYSKALKTLQRVATFNGKKEEGKKLTIEELKFNLQKDITSAKVKYGLSDLFRVSILRRVTFCLSLAWFSTGFAYYSLAMGVEEFGVNIYILQIIFGGVDIPAKFITILSLSYLGRRITQSFLLLLAGGAILALIFVPSEMQLLRTALAVFGKGCLSGSFSCLFLYTSELYPTVLRQTGMGISNVWARVGSMIAPLVKITGELQPFIPNVIFGTTALLGGSAAFFLLETLNRPLPETIEDIQNWHKQVQKTKQESEAEKASQIIPLKTGG |  |  |  | Km [4]: 82.6 µM |
